Laboratory results taken from patent publication US20050239656A1, “Pyridine compounds or salts thereof and herbicides containing the same” (priority 2002, published 2005).

Legend:
barnyardgrass [1] = assay: Test Example 2: soil surface treatment, upland pot test; assay type: in vivo, Echinochloa crus-galli L.; details: active ingredient 250 g/ha, observed 20th to 28th day
Method in brief: (§1)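 Visual growth-control ratings (0 = untreated, 100 = complete kill) were taken 20–28 days after soil surface application. The spray was made one day post-sowing in upland soil pots, using formulated compound diluted with water at 1,500 L/ha at a set active ingredient rate.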

crabgrass = assay: as above; assay type: in vivo, Digitaria sanguinalis L.; details: active ingredient 250 g/ha, observed 20th to 28th day
Method in brief: as §1

green foxtail = assay: as above; assay type: in vivo, Setaria viridis L.; details: active ingredient 250 g/ha, observed 20th to 28th day
Method in brief: as §1

redroot pigweed = assay: as above; assay type: in vivo, Amaranthus retroflexus L.; details: active ingredient 250 g/ha, observed 20th to 28th day
Method in brief: as §1

prickly sida = assay: as above; assay type: in vivo, Sida spinosa L.; details: active ingredient 250 g/ha, observed 20th to 28th day
Method in brief: as §1

velvetleaf = assay: as above; assay type: in vivo, Abutilon theophrasti MEDIC.; details: active ingredient 250 g/ha, observed 20th to 28th day
Method in brief: as §1

rice = assay: as above; assay type: in vivo, Oryza sativa L.; details: active ingredient 250 g/ha, observed 20th to 28th day
Method in brief: as §1

wheat = assay: as above; assay type: in vivo, Triticum spp.; details: active ingredient 250 g/ha, observed 20th to 28th day
Text: Upland field soil was put into a 1/170,000 ha pot, and seed of various plants (barnyardgrass, crabgrass, green foxtail, redroot pigweed, prickly sida, velvetleaf, rice, wheat, corn, soybean) were sown. On the 1st day after the sowing, a wettable powder or emulsifiable concentrate having the compound of the present invention formulated in accordance with a usual formulation method, was weighed so that the active ingredient would be a predetermined amount, and diluted with water in an amount of 1,500 L/ha. The herbicide thus adjusted was applied by a small size sprayer for soil surface treatment. On the 20th to 28th days after the application of the herbicide, the growth of the respective plants was visually observed, and the herbicidal effects were evaluated by the growth controlling degrees (%) ranging from 0 (equivalent to the non-treated plot) to 100 (complete kill), whereby the results shown in Table 4, were obtained.

corn = assay: as above; assay type: in vivo, Zea mays L.; details: active ingredient 250 g/ha, observed 20th to 28th day
Method in brief: as §1

soybean = assay: as above; assay type: in vivo, Glycine max Merr.; details: active ingredient 250 g/ha, observed 20th to 28th day
Method in brief: as §1

barnyardgrass [2] = assay: Test Example 3: paddy pot test, application under submerged conditions; assay type: in vivo, Echinochloa crus-galli L.; details: active ingredient 250 g/ha; submerged application at 0.5 leaf stage; visually observed 14 days after application; 0 = non-treated, 100 = complete kill
Method in brief: (§2)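 After sowing seeds and planting wapato tubers in flooded paddy soil, an aqueous dilution of the formulated compound was added to the 3–4 cm flood water at early leaf stage. Percent growth control relative to the untreated plot was assessed visually on day 14.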

japanese bulrush = assay: as above; assay type: in vivo, Scirpus juncoides; details: active ingredient 250 g/ha; submerged application at 0.5 leaf stage; visually observed 14 days after application; 0 = non-treated, 100 = complete kill
Method in brief: as §2

rice (var. Nihonbare) = assay: Test Example 3: paddy pot test, transplanted rice; assay type: in vivo, Oryza sativa L.; details: active ingredient 250 g/ha, applied 4th day after transplantation, visually observed 21st day after application, 0 = non-treated, 100 = complete kill
Method in brief: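 Rice (2-leaf stage) was transplanted 3 cm deep into puddled, leveled paddy soil under 3–4 cm flooding. On day 4 after transplanting, diluted wettable powder or emulsifiable concentrate was pipetted onto the water at a predetermined active-ingredient dose. Growth control (0 = untreated, 100 = complete kill) was scored visually 21 days later.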

| SMILES | Growth controlling degree (%) Barnyardgrass (barnyardgrass [1]) | Growth controlling degree (%) Crabgrass (crabgrass) | Growth controlling degree (%) Green foxtail (green foxtail) | Growth controlling degree (%) Redroot pigweed (redroot pigweed) | Growth controlling degree (%) Prickly sida (prickly sida) | Growth controlling degree (%) Velvetleaf (velvetleaf) | Growth controlling degree (%) Rice (rice) | Growth controlling degree (%) wheat (wheat) | Growth controlling degree (%) Corn (corn) | Growth controlling degree (%) Soyabean (soybean) | Growth controlling degree (%) Barnyardgrass (barnyardgrass [2]) | Growth controlling degree (%) Japanese bulrush (japanese bulrush) | Growth controlling degree (%) Rice (rice (var. Nihonbare)) |
| --- | --- | --- | --- | --- | --- | --- | --- | --- | --- | --- | --- | --- | --- |
| CCC(Br)C(=O)N(C)C(c1cnccc1C(F)(F)F)C(C)C (stereo not drawn) [Compound I-202] | 100% | 100% | 95% | 80% | 70% | 40% | 60% | 40% | 50% | 35% | 98% | 98% | 10% |
| CC(C)C(c1cnccc1C(F)(F)F)N(C)C(=O)C1CC1 (stereo not drawn) [Compound I-204] | 100% | 100% | 100% | 95% | 95% | 70% | 100% | 95% | 70% | 70% | 100% | 98% | 60% |
| CC(C)=CC(=O)N(C)C(c1cnccc1C(F)(F)F)C(C)C (stereo not drawn) [Compound I-205] | 100% | 100% | 100% | 80% | 70% | 60% | 70% | 95% | 40% | 30% | 100% | 98% | 20% |
| CC(C)C(c1cnccc1C(F)(F)F)N(C)C(=O)C(F)=Cc1ccccc1 (stereo not drawn) [Compound I-207] | 100% | 98% | 100% | 60% | 80% | 50% | 40% | 20% | 30% | 30% | 98% | 100% | 10% |
| CC(C)C(c1cnccc1C(F)(F)F)N(C)C(=O)C(F)(F)F (stereo not drawn) [Compound I-209] | 100% | 98% | 100% | 60% | 70% | 60% | 70% | 70% | 50% | 50% | 98% | 100% | 35% |
| CC(C)C(c1cnccc1C(F)(F)F)N(C)C(=O)CCBr (stereo not drawn) [I-201] | 100% | 100% | 100% | 70% | 60% | 40% | 70% | 60% | 40% | 40% | 98% | 98% | 10% |
